From US20230272392A1, “METHODS OF TFEB ACTIVATION AND LYSOSOMAL BIOGENESIS AND COMPOSITIONS THEREFOR” (Casma Therapeutics, Inc., priority 2020, published 2023)

Columns and labels:
LC3 [1] = assay: LC3 lipidation (LC3-I to LC3-II conversion), Western blot and cell images; format: cell-based; conditions: for LC3 lipidation (conversion of LC3 "I" form to "II" form): wild type (WT) and autophagy-deficient cells, FIGS. 1, 2, 3
Excerpt: (§1) For preparation of total cell lysates, cells were lysed in RIPA buffer (#9806, Cell Signaling Technology) supplemented with sodium dodecyl sulfate to 1% final concentration (SDS, Boston BioProducts) and protease inhibitor tablets (Complete EDTA-free, Roche). Lysates were homogenized by sequential passaging through Qiashredder columns (Qiagen), and protein levels were quantified by Lowry DC protein assay (Bio-Rad). Proteins were denatured in 6×Laemmli SDS loading buffer (Boston BioProducts) at 100° C. for 5 minutes.
(§2) Equivalent amounts of total proteins were separated on Tris-Glycine TGx SDS-PAGE gels (Bio-Rad) for Western blotting. Proteins were transferred to nitrocellulose using standard methods and membranes were blocked in 5% non-fat dry milk (Cell Signaling Technology) in TBS with 0.2% Tween-20 (Boston BioProducts). Primary antibodies were diluted in 5% bovine serum albumin (BSA, Cell Signaling Technology) in TBS with 0.2% Tween-20 and were incubated with membranes at 4° C. overnight. HRP-conjugated secondary antibodies were diluted in blocking solution (1:20,000, ThermoFisher) and incubated with membranes at room temperature for 1 hour. Western blots were developed using West PicoPLUS Super Signal ECL reagents (Pierce) and film (GEHealthcare).

LC3 [2] = assay: LC3 puncta co-localized with LAMP1 in primary bone marrow-derived macrophages, wild-type vs ATG16L1 K490A knock-in; format: cell-based, mouse; conditions: FIG. 12
Procedure: For LC3 and LAMP1 staining in primary BMDMs, cells were plated on 18 mm coverslips. The next day, cells were treated as indicated and cells were fixed in ice cold methanol as described above. Cells were then blocked in PBS+5% BSA for 1 hour before addition of primary antibodies (anti-LC3A/B, CST #4108, 1:100; anti-LAMP1, BD #555798, 1:100) and diluted in blocking buffer overnight at 4° C. Cells were then washed and incubated with fluorescent secondary antibodies in blocking buffer for 1 hour at room temperature. Cells were washed in PBS incubated with DAPI and mounted on glass slides using Prolong anti-fade reagent (Life Technologies).
The K490A point mutation was introduced into C57/BL6 mice via direct zygote injection of CRISPR/Cas9 reagents. Briefly, a single stranded guide sequence was designed and synthesized along with a tracrRNA from Dhamacon. A repair donor single stranded DNA sequence was designed to introduce the K490A point mutation and mutate the PAM sequence to stop re-targeting of the Cas9 complex to already edited DNA. These reagents, along with recombinant Cas9, were injected into mouse zygotes. Pups born from these injections were genotyped via Transnetyx and heterozogous founders were bred with wild-type mice to obtain pure heterozygote animals. Further breeding yielded mice homozygous for the K490A mutation. […]

TFEB [3] = assay: TFEB activation (Western blot / nuclear accumulation) in cell lines; format: cell-based; conditions: for TFEB activation under co-treatment with BafA1: FIG. 16
Excerpt: as §1, §2
(§3) For high content image acquisition, cells were plated in 96-well glass bottom, black wall plates (Greiner, #655892) or 384-well polystyrene, black-wall plates (Greiner, #781091) and grown overnight to 70% confluency. Treatments were performed as indicated. Cells were fixed for 10 minutes in either −20° C. methanol or 4% paraformaldehyde (Electron Microscopy Sciences). Cells were blocked and permeabilized in a solution containing 1:1 Odyssey blocking buffer (LiCor)/PBS (Invitrogen) with 0.1% Triton X-100 (Sigma) and 1% normal goat serum (Invitrogen) for 1 hour at room temperature. Primary antibodies were added overnight at 4° C. in blocking buffer described above. After washing plates with PBS using an EL-406 plate washer (BioTek), secondary Alexa-conjugated antibodies (Life Technologies) were diluted 1:1,000 in blocking solution and applied for 1 hour at room temperature. Cells were then washed again in PBS as described and imaged using an INCELL 6500 high-content imager (GE Healthcare). Images were analyzed using the GE InCarta software.

GPNMB = GPNMB protein levels (TFEB target gene) upon chronic treatment, Western blot; format: cell-based; conditions: FNIP1/2 DKO cells reconstituted with FNIP1; FIG. 44D
Excerpt: as §2, with “For preparation of total cell lysates, cells were lysed in RIPA buffer (#9806, Cell Signaling Technology) supplemented with sodium dodecyl sulfate to 1% final concentration (SDS, Boston BioProducts) and protease inhibitor tablets (Complete EDTA-free, Roche). Lysates were homogenized by sequential passaging through Qiashredder columns (Qiagen), and protein levels were quantified by Lowry DC protein assay (Bio-Rad). Proteins were denatured in 6×Laemmli SDS loading buffer (Boston BioProducts) at 100° C. for 5 minutes. Equivalent” for “Equivalent”

TFEB [4] = assay: TFEB activation in ATG16L1 KO mouse macrophages reconstituted with ATG16L1 WD40 point mutants; format: cell-based; conditions: immortalized ATG16L1 KO mouse macrophages; FIG. 21
Procedure: For endogenous TFEB staining in mouse macrophages, cells were fixed in 3.7% formaldehyde for 15 minutes at room temperature, washed in PBS and permeabilized in 0.2% triton/PBS for 5 minutes. Cells were then processed as above for primary (anti-TFEB, Bethyl Laboratories, #A303-673A, 1:200) and secondary antibodies. Images were acquired using a Confocal Zeiss LSM 780 microscope (Carl Zeiss Ltd) equipped with a 40×oil immersion 1.40 numerical aperture (NA) objective using Zen software (Carl Zeiss Ltd). Analysis was performed using Image J. For nuclear cytosol quantification, the ratio of fluorescent intensity of TFEB within the DAPI was mask versus the cytosol of 30 cells across 2 independent experiments were measured.

TFE3 and FLCN = TFE3 and FLCN subcellular localization upon dimerizer-induced mitophagy in U2OS cells; format: cell-based; conditions: 25 nM, 3 hours; control KO, RB1CC1 KO, GABARAP triple KO U2OS cells; FIG. 50
Procedure: as §3

[5] = test system: U2OS cells expressing mKeima, FRB-p62, and FKBP-FIS1; assay: Mitophagy efficiency, Keima fluorescence shift assay in U2OS cells; format: cell-based; conditions: dimerizer-induced mitophagy; FIG. 49

| SMILES | LC3 lipidation (conversion of LC3 "I" form to "II" form) (LC3 [1]) | LC3 puncta formation co-localized with LAMP1, wild-type vs ATG16L1^K490A cells (LC3 [2]) | TFEB activation under co-treatment with BafA1 (TFEB [3]) | TFEB activation in macrophages with ATG16L1-F467A or ATG16L1-K490A (TFEB [4]) | also measured |
| --- | --- | --- | --- | --- | --- |
| COc1ccc(-c2ccc3c(N4CCOC[C@@H]4C)nc(N4CCOC[C@@H]4C)nc3n2)cc1CO [AZD8055] | able to regulate LC3 lipidation in WT but not autophagy-deficient cells | sensitivity to the ATG16L1^K490A mutation was not observed | did not prevent TFEB activation | activated TFEB irrespective of ATG16L1 status | LC3 lipidation: dependence on VPS34 inhibition and Bafilomycin A1 co-treatment (LC3 [1]; FIG. 4): induced conversion of LC3 in a manner sensitive to VPS34 inhibition and was potentiated with the vATPase inhibitor Bafilomycin A1 (BafA1); TFEB activation (with GPNMB readout) (TFEB [3]; FIG. 44D): robust TFEB activation; TFEB nuclear accumulation / activation with SopF expression (TFEB [3]; SopF expression vs SopF negative controls, FIG. 15): did not impact TFEB activation; GPNMB protein levels (GPNMB): largely suppressed |
| CO[C@H]1[C@@H](O)[C@H](C)C[C@H](C)/C=C/C=C/C=C(\C)[C@@H](c2c[nH]c3c(C)cccc23)C[C@@H]2CC[C@@H](C)[C@@](O)(O2)C(=O)C(=O)N2CCCC[C@H]2C(=O)O[C@H]([C@H](C)C[C@@H]2CC[C@@H](O)[C@H](OC)C2)C[C@H](O)[C@H](C)/C=C(\C)[C@H]1O [AP21967] | – | – | – | – | TFE3 nuclear localization and FLCN punctate structures (TFE3 and FLCN): seen in CTRL and RBICC1_KO (autophagy-deficient) cells but not in GABARAP_TKO cells |
| CO/C1=C\C(C)=C\[C@@H](C)[C@@H](O)[C@@H](C)C/C(C)=C/C=C/[C@H](OC)[C@@H]([C@@H](C)[C@@H](O)[C@H](C)[C@@]2(O)C[C@@H](O)[C@H](C)[C@@H](C(C)C)O2)OC1=O [BafA1, Bafilomycin A1] | – | – | – | – | Keima signal (mitophagy) under co-treatment [5]: blocked the Keima signal |
| Cc1ccc(S(=O)(=O)Nc2ccccc2N2CCCCC2)s1 [MK6-83] | rapid conversion of LC3 from its cytoplasmic “I” form to the lipidated, punctate “II” form in both wild type (WT) and autophagy-deficient cells | – | prevented | – | – |
| CC1CC(C)(C)N(C(=O)CN2C(=O)c3ccccc3C2=O)c2ccccc21 (stereo not drawn) [ML-SA1] | rapid conversion of LC3 from its cytoplasmic “I” form to the lipidated, punctate “II” form in both wild type (WT) and autophagy-deficient cells | did not occur in ATG16L1^K490A cells | – | did not exhibit TFEB activation | – |
